# Molecular target: T1, human mAChR M4 (Homo sapiens, UniProt P08173)
# T1 construct: expressed in transfected cells; host or cells: CHO-K1 (American Type Culture Collection), stably expressing hM4 and Gqi5
# T1 sequence (P08173 1-479): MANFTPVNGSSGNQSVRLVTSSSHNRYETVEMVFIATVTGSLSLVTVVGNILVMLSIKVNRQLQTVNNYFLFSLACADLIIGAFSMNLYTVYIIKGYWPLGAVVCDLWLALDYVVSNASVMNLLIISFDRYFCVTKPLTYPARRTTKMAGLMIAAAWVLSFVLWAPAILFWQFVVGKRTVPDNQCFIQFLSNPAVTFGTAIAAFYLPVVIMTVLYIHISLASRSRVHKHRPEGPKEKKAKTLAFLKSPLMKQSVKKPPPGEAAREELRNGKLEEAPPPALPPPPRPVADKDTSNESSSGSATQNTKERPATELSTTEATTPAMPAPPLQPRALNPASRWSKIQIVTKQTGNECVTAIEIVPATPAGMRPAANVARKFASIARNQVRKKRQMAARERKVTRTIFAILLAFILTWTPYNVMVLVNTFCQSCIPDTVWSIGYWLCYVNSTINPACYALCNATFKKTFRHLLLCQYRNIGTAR
# Assay: mAChR M4 cell-based functional assay: calcium mobilization (Fluo-4, FDSS), potentiation of EC20 acetylcholine response in hM4-Gqi5 CHO-K1 cells
# Details: human M4; for Emax at 30 µM: CHO-K1, % ACh maximum at 30 μM; for EC50: potentiation of EC20 acetylcholine response, calcium mobilization
# In short: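 CHO-K1 cells stably co-expressing human M4 and chimeric Gqi5, loaded with Fluo-4 AM (50 min, 37 °C). Compounds in 11-point 1:3 series added first; EC20 acetylcholine added at 144 s and again at 230 s. Calcium read on FDSS at 1 Hz; EC50 and Emax from four-parameter logistic fit of potentiated EC20 response.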
Structure (SMILES),Emax at 30 µM [%],EC50 [nM]
"Cc1ccc(-c2cnc3c(c2)CN(c2nn4c(=O)cc(C(F)F)nc4c(C)c2C)CC3)cc1F [Compound 1-191, 2-(difluoromethyl)-7-(3-(3-fluoro-4-methylphenyl)-7,8-dihydro-1,6-naphthyridin-6(5H)-yl)-8,9-dimethyl-4H-pyrimido[1,2-b]pyridazin-4-one]",84,2400
"Cc1c(N2CCc3ncc(N4CCC(C)(C)C4=O)cc3C2)nn2c(=O)ccnc2c1C [Compound 2-148, 7-(3-(3,3-dimethyl-2-oxopyrrolidin-1-yl)-7,8-dihydro-1,6-naphthyridin-6(5H)-yl)-8,9-dimethyl-4H-pyrimido[1,2-b]pyridazin-4-one]",86,1030
"COc1ccccc1-c1cnc2c(c1)CN(c1nn3c(=O)cc(C)nc3c(C)c1C)CC2 [Compound 1-250, 7-(3-(2-methoxyphenyl)-7,8-dihydro-1,6-naphthyridin-6(5H)-yl)-2,8,9-trimethyl-4H-pyrimido[1,2-b]pyridazin-4-one]",79,1010
"COc1cnccc1-c1cnc2c(c1)CN(c1nn3c(=O)ccnc3cc1C)CC2 [Compound 1-50, 7-(3-(3-methoxypyridin-4-yl)-7,8-dihydro-1,6-naphthyridin-6(5H)-yl)-8-methyl-4H-pyrimido[1,2-b]pyridazin-4-one]",84,685
"COCc1cc(=O)n2nc(N3CCc4ncc(-c5ccnc(C)c5)cc4C3)c(C)cc2n1 [Compound 1-361, 2-(methoxymethyl)-8-methyl-7-(3-(2-methylpyridin-4-yl)-7,8-dihydro-1,6-naphthyridin-6(5H)-yl)-4H-pyrimido[1,2-b] pyridazin-4-one]",82,351
"Cc1cc(=O)n2nc(N3CCc4ncc(-c5cn6ccnc6cc5C)cc4C3)c(C)c(C)c2n1 [Compound 1-131, 2,8,9-trimethyl-7-(3-(7-methylimidazo[1,2-a]pyridin-6-yl)-7,8-dihydro-1,6-naphthyridin-6(5H)-yl)-4H-pyrimido[1,2-b]pyridazin-4-one]",62,1760
"COCc1cc(=O)n2nc(N3CCc4ncc(-c5ccccc5OC(F)(F)F)cc4C3)c(C)cc2n1 [Compound 1-363, 2-(methoxymethyl)-8-methyl-7-(3-(2-(trifluoromethoxy)phenyl)-7,8-dihydro-1,6-naphthyridin-6(5H)-yl)-4H-pyrimido[1,2-b] pyridazin-4-one]",65,3060
"Cc1cc(=O)n2nc(N3CCc4ncc(NCC5CCCOC5)cc4C3)c(C)c(C)c2n1 (stereo not shown) [Compound 2-44, 2,8,9-trimethyl-7-(3-(((tetrahydro-2H-pyran-3-yl)methyl)amino)-7,8-dihydro-1,6-naphthyridin-6(5H)-yl)-4H-pyrimido[1,2-b]pyridazin-4-one]",65,611
"Cc1cc2nccc(=O)n2nc1N1CCc2ncc(-c3cnn(C)c3)cc2C1 [Compound 1-6, 8-methyl-7-(3-(1-methyl-1H-pyrazol-4-yl)-7,8-dihydro-1,6-naphthyridin-6(5H)-yl)-4H-pyrimido[1,2-b]pyridazin-4-one]",83,736
"Cc1cc(=O)n2nc(N3CCc4ncc(-c5ccccc5Cl)cc4C3)c(C)c(C)c2n1 [Compound 1-278, 7-(3-(2-chlorophenyl)-7,8-dihydro-1,6-naphthyridin-6(5H)-yl)-2,8,9-trimethyl-4H-pyrimido[1,2-b]pyridazin-4-one]",81,–
"COCc1c(C)c(N2CCc3ncc(C(F)(F)F)cc3C2)nn2c(=O)ccnc12 [Compound 1-276, 9-(methoxymethyl)-8-methyl-7-(3-(trifluoromethyl)-7,8-dihydro-1,6-naphthyridin-6(5H)-yl)-4H-pyrimido[1,2-b]pyridazin-4-one]",66,–
"COCc1cc(=O)n2nc(N3CCc4ncc(C(F)(F)F)cc4C3)c(C)cc2n1 [Compound 1-313, 2-(methoxymethyl)-8-methyl-7-(3-(trifluoromethyl)-7,8-dihydro-1,6-naphthyridin-6(5H)-yl)-4H-pyrimido[1,2-b]pyridazin-4-one]",96,503
"Cc1ccc(-c2cnc3c(c2)CN(c2nn4c(=O)cc(C(F)F)nc4c(C)c2C)CC3)c(C)c1 [Compound 1-164, 2-(difluoromethyl)-7-(3-(2,4-dimethylphenyl)-7,8-dihydro-1,6-naphthyridin-6(5H)-yl)-8,9-dimethyl-4H-pyrimido[1,2-b]pyridazin-4-one]",69,640

# Other lines, results leading:
Emax at 30 µM [%],EC50 [nM],Structure (SMILES)
56,97,"Cc1cc(=O)n2nc(N3CCc4ncc(-n5cccn5)cc4C3)c(C)cc2n1 [Compound 2-22, 7-(3-(1H-pyrazol-1-yl)-7,8-dihydro-1,6-naphthyridin-6(5H)-yl)-2,8-dimethyl-4H-pyrimido[1,2-b]pyridazin-4-one]"
86,283,"CCn1cc(-c2cnc3c(c2)CN(c2nn4c(=O)cc(C(F)F)nc4c(C)c2C)CC3)cn1 [Compound 1-166, 2-(difluoromethyl)-7-(3-(1-ethyl-1H-pyrazol-4-yl)-7,8-dihydro-1,6-naphthyridin-6(5H)-yl)-8,9-dimethyl-4H-pyrimido[1,2-b]pyridazin-4-one]"
89,68,"Cc1cc(F)ncc1-c1cnc2c(c1)CN(c1nn3c(=O)ccnc3c(C)c1C)CC2 [Compound 1-149, 7-(3-(6-Fluoro-4-methylpyridin-3-yl)-7,8-dihydro-1,6-naphthyridin-6(5H)-yl)-8,9-dimethyl-4H-pyrimido[1,2-b]pyridazin-4-one]"
90,3,"Cc1cc2ncc(Cl)c(=O)n2nc1N1CCc2ncc(Nc3ccncc3F)cc2C1 [Compound 2-157, 3-chloro-7-(3-((3-fluoropyridin-4-yl)amino)-7,8-dihydro-1,6-naphthyridin-6(5H)-yl)-8-methyl-4H-pyrimido[1,2-b]pyridazin-4-one]"
80,63,"Cc1ccc(F)cc1-c1cnc2c(c1)CN(c1nn3c(=O)ccnc3cc1C)CC2 [Compound 1-432, 7-(3-(5-fluoro-2-methylphenyl)-7,8-dihydro-1,6-naphthyridin-6(5H)-yl)-8-methyl-4H-pyrimido [1,2-b]pyridazin-4-one]"
89,344,"Cc1c(N2CCc3ncc(-c4cccnc4)cc3C2)nn2c(=O)ccnc2c1C [Compound 1-148, 8,9-dimethyl-7-(3-(pyridin-3-yl)-7,8-dihydro-1,6-naphthyridin-6(5H)-yl)-4H-pyrimido[1,2-b]pyridazin-4-one]"
81,300,"Cc1cc2nccc(=O)n2nc1N1CCc2ncc(C(F)(F)F)cc2C1 [Compound 1-1, 8-methyl-7-(3-(trifluoromethyl)-7,8-dihydro-1,6-naphthyridin-6(5H)-yl)-4H-pyrimido[1,2-b]pyridazin-4-one]"
84,17,"Cc1cc2nc(C)c(F)c(=O)n2nc1N1CCc2ncc(N3CCCn4nccc43)cc2C1 [Compound 2-9, 7-(3-(6,7-dihydropyrazolo[1,5-a]pyrimidin-4(5H)-yl)-7,8-dihydro-1,6-naphthyridin-6(5H)-yl)-3-fluoro-2,8-dimethyl-4H-pyrimido[1,2-b]pyridazin-4-one]"
